Reference: the OligoGym collection
After the bases stand the sugars from the 5' end (letter, count) and the backbone: PS all phosphorothioate, else s phosphorothioate and o phosphodiester by linkage. Methylation of C is not given here. e = 2'-O-(2-methoxyethyl) (MOE); k = constrained ethyl (cEt); d = 2'-deoxy (DNA); m = 2'-O-methyl

Target: HSD17B13
Conditions: ASO, HepaRG

Row | Sequence | target mRNA inhibition (1 µM) [%] | further results
1 | CATAACCTAATAACTA (sugars k3 d10 k3, PS) | 10 | –
2 | TAGCTTTTGTCCACCT (sugars k3 d9 k3 e1, PS) | 65 | –
3 | AGTTTAGATTGCATAA (sugars k3 d10 k3, PS) | 50 | –
4 | TCAGTAGAGAGCATAA (sugars k3 d10 k3, PS) | 52 | –
5 | CTCAAATAGCCTTTTG (sugars k3 d10 k3, PS) | 64 | –
6 | AGTCGGTCACCTTTCA (sugars k3 d10 k3, PS) | 66 | –
7 | TCTAAATACCCTTGGT (sugars k3 d10 k3, PS) | 26 | –
8 | CCTCUAAGTTAGCCCC (sugars k3 d1 m1 d8 k3, PS) | 8 | –
9 | TCAAAACCTTTGTTGC (sugars k3 d10 k3, PS) | 6 | –
10 | CCCAGCATTATTCACC (sugars k3 d10 k3, PS) | 19 | –
11 | TAAACCCTGGAGCAGC (sugars k3 d10 k3, PS) | 66 | –
12 | CTGTGGCATGGCTACA (sugars k3 d9 k3 e1, PS) | 58 | –
13 | TATGTAATAGCCAGTA (sugars kkdddddddddkekek, PS) | 78 | target mRNA inhibition (0.02 µM): 9%; target mRNA inhibition (0.078 µM): 33%; target mRNA inhibition (0.313 µM): 58%; target mRNA inhibition (1.25 µM): 67%; target mRNA inhibition (5 µM): 85%
14 | AAAAGGCCCAAGGCTT (sugars k3 d10 k3, PS) | 30 | –
15 | CCAACGACTCCAAGTA (sugars k3 d10 k3, PS) | 20 | –
16 | CAGGUTGAGATAAAGC (sugars k3 d1 m1 d8 k3, PS) | 55 | –
17 | TGTATCTTATAAGACT (sugars k3 d10 k3, PS) | 45 | –
18 | GATTAGTTAACCTTTT (sugars k3 d10 k3, PS) | 58 | –
19 | ACAATATGGGATGAGG (sugars kkdddddddddkekek, PS) | 51 | –
20 | GAAAAGATGTACACTG (sugars k3 d10 k3, PS) | 56 | –
21 | GGAATGCTACTTGAAC (sugars k3 d10 k3, PS) | 63 | –
22 | TAGTCCATGCAAAAGC (sugars k3 d10 k3, PS) | 66 | –
23 | TCAGAACAGTTCAACT (sugars k3 d10 k3, PS) | 30 | –
24 | CTAGGATGATGTTCAT (sugars k3 d10 k3, PS) | 47 | –
25 | GCATGGCTACAGATTG (sugars kkdddddddddkekek, PS) | 41 | –

Row | Sequence | target mRNA inhibition (1 µM) [%] | further results
26 | GCCTAAAATTGTCTAA (sugars k3 d10 k3, PS) | 32 | –
27 | TGTGACGATGTGGCCA (sugars k3 d10 k3, PS) | 42 | –
28 | TGGGACCAAGGATATA (sugars k3 d9 k3 e1, PS) | 55 | –
29 | ATGGGATGAGGTAAGG (sugars k3 d10 k3, PS) | 46 | –
30 | CACCTTATTAATATCC (sugars k3 d10 k3, PS) | 34 | –
31 | CTCTTCATCCTTGGTG (sugars k3 d10 k3, PS) | 25 | –
32 | TCCAAGTAGGAGTAGA (sugars k3 d10 k3, PS) | 24 | –
33 | ATCTAGAACACTTGCC (sugars k3 d10 k3, PS) | 27 | –
34 | TCTCTTGACAATGGTT (sugars k3 d10 k3, PS) | 70 | target mRNA inhibition (0.02 µM): 2%; target mRNA inhibition (0.078 µM): 14%; target mRNA inhibition (0.313 µM): 44%; target mRNA inhibition (1.25 µM): 86%; target mRNA inhibition (5 µM): 86%
35 | AGGGAAGATCTGGCTG (sugars k3 d10 k3, PS) | 4 | –
36 | GCTAAGTATACTTTCT (sugars k3 d10 k3, PS) | 37 | –
37 | AATAUTGAGGCACTGG (sugars k3 d1 m1 d8 k3, PS) | 48 | –
38 | TAATAATGGGCAGAGC (sugars k3 d10 k3, PS) | 30 | –
39 | CCATAATAATAGCTCT (sugars k3 d10 k3, PS) | 48 | –
40 | ACAAGAGTTCTTGCAG (sugars k3 d10 k3, PS) | 29 | –
41 | GCTGATTAATCTTGAT (sugars k3 d10 k3, PS) | 48 | –
42 | TCTTGACAATGGTTGC (sugars k3 d1 m1 d8 k3, PS) | 67 | target mRNA inhibition (0.02 µM): 25%; target mRNA inhibition (0.078 µM): 16%; target mRNA inhibition (0.313 µM): 39%; target mRNA inhibition (1.25 µM): 60%; target mRNA inhibition (5 µM): 87%
43 | TCAAGTAATAAAGTCC (sugars k3 d10 k3, PS) | 49 | –
44 | TACTTGAACAGTCTTA (sugars kkdddddddddkekek, PS) | 60 | –
45 | ATAGAGTTGCACCGTT (sugars k3 d10 k3, PS) | 57 | –
46 | GCATCAAGACATTCTA (sugars k3 d1 m1 d8 k3, PS) | 51 | –
47 | TTGACTGCTGCTAGTG (sugars kkdddddddddkekek, PS) | 29 | –
48 | CACAATCTAGCAACCT (sugars k3 d10 k3, PS) | 40 | –
49 | GCCACTGTGACGATGT (sugars k3 d10 k3, PS) | 9 | –
50 | TTAGGAAAGCTCATGG (sugars k3 d10 k3, PS) | 26 | –

Row | Sequence | target mRNA inhibition (1 µM) [%] | further results
51 | ATGTATCTTATAAGAC (sugars k3 d9 k3 e1, PS) | 24 | –
52 | ATGTTGACCTCAAATG (sugars k3 d10 k3, PS) | 0 | –
53 | CTTGATCTCTTAGCTG (sugars k3 d10 k3, PS) | 51 | –
54 | TTGAACAGTCTTAAAC (sugars k3 d9 k3 e1, PS) | 35 | –
55 | CCTTAGGAAAGCTCAT (sugars k3 d10 k3, PS) | 29 | –
56 | TCATAGCTCACTTAGT (sugars k3 d10 k3, PS) | 0 | –
57 | CAAAAGACTTTGAGAC (sugars k3 d10 k3, PS) | 22 | –
58 | AATACATTAGCAAGCT (sugars k3 d10 k3, PS) | 45 | –
59 | CAGTCTTAAACCTTCC (sugars k3 d10 k3, PS) | 70 | –
60 | TTGGGACCAATATAAT (sugars k3 d10 k3, PS) | 18 | –
61 | GTTAAAACTTCATTCC (sugars k3 d10 k3, PS) | 5 | –
62 | CAATTATATGAGGTCT (sugars k3 d10 k3, PS) | 36 | –
63 | CAGCATTGATTCGAAA (sugars kkdddddddddkekek, PS) | 58 | –
64 | TCTAAACATCTCTGGG (sugars k3 d9 k3 e1, PS) | 42 | –
65 | TGGGATAGTGGAGGAA (sugars k3 d10 k3, PS) | 13 | –
66 | TCAGTCCTTGTGTAGT (sugars k3 d10 k3, PS) | 72 | –
67 | CATCTATCATGCCTTC (sugars k3 d10 k3, PS) | 18 | –
68 | TTAAATCAGGCAGTCA (sugars k3 d10 k3, PS) | 45 | –
69 | GTTAGTATAGTTATCT (sugars k3 d1 m1 d8 k3, PS) | 52 | –
70 | TCTTGACAATGGTTGC (sugars kkdddddddddkekek, PS) | 37 | –
71 | TTTCTAAATTACTCCG (sugars k3 d10 k3, PS) | 54 | –
72 | AATCACAAGTAAGGTA (sugars k3 d1 m1 d8 k3, PS) | 31 | –
73 | CATAAAGGTGGGATAA (sugars k3 d10 k3, PS) | 23 | –
74 | TGTTGATATTCTGTGG (sugars k3 d9 k3 e1, PS) | 64 | –
